Results published in patent US20170253562A1, “Nampt Inhibitors” (AbbVie Inc., priority 2011, published 2017).

Molecular target: recombinant, human, C-terminally-His tagged NAMPT (Homo sapiens, UniProt P43490)
Assay: Time-Resolved Fluorescence Resonance Energy Transfer (TR-FRET) binding assay of NAMPT
Details: 6.8 nM NAMPT, 200 nM probe (Oregon Green 488-conjugated APO866), 2-3 hours
Experimental: Time-Resolved Fluorescence Resonance Energy Transfer (TR-FRET) Binding Assay of NAMPT
Plates were read with Envision (Laser Lantha low volume protocol) after 2 to 3 hours.

Chain of recombinant, human, C-terminally-His tagged NAMPT (P43490 whole entry): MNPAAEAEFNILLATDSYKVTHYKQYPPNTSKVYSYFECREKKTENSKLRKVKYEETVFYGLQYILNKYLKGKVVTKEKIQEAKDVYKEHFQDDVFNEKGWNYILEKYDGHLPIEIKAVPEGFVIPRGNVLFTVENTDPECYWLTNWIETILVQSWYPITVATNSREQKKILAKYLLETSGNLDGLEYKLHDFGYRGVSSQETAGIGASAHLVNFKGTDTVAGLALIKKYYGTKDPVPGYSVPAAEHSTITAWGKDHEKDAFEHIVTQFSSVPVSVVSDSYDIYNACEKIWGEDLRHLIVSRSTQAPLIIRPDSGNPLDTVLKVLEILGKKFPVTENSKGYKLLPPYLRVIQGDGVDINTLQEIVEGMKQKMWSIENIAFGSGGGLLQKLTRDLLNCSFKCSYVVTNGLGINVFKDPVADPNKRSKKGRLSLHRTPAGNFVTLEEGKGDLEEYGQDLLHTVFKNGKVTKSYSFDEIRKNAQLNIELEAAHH

SMILES	IC50 [nM]
O=C(Nc1ccc(C(=O)N2CC3(CCCO3)C2)nn1)N1Cc2ccccc2C1 [Example 41, N-[6-(5-oxa-2-azaspiro[3.4]oct-2-ylcarbonyl)pyridazin-3-yl]-1,3-dihydro-2H-isoindole-2-carboxamide]	344
O=C(Nc1ccc(C(=O)N2CC3(CNC3)C2)nn1)N1Cc2ccccc2C1 [Example 44, N-[6-(2,6-diazaspiro[3.3]hept-2-ylcarbonyl)pyridazin-3-yl]-1,3-dihydro-2H-isoindole-2-carboxamide]	10000
O=C(Nc1ccc(C(=O)N2CC3(CCCCO3)C2)nn1)N1Cc2ccccc2C1 [Example 46, N-[6-(5-oxa-2-azaspiro[3.5]non-2-ylcarbonyl)pyridazin-3-yl]-1,3-dihydro-2H-isoindole-2-carboxamide]	261
O=C(Nc1ccc(C(=O)N2CCC3(CCNCC3)C2C(F)(F)F)nn1)N1Cc2ccccc2C1 (stereo not shown) [Example 47, N-(6-{[1-(trifluoromethyl)-2,8-diazaspiro[4.5]dec-2-yl]carbonyl}pyridazin-3-yl)-1,3-dihydro-2H-isoindole-2-carboxamide]	5850
O=C(NCc1nnn2c1CNCCC2)c1ccc(NC(=O)N2Cc3ccccc3C2)nn1 [Example 49, N-{6-[(5,6,7,8-tetrahydro-4H-[1,2,3]triazolo[1,5-a][1,4]diazepin-3-ylmethyl)carbamoyl]pyridazin-3-yl}-1,3-dihydro-2H-isoindole-2-carboxamide]	4700

Other lines, results leading:

IC50 [nM]	SMILES
648	O=C(NCC1CC12CCNCC2)c1ccc(NC(=O)N2Cc3ccccc3C2)nn1 (stereo not shown) [Example 40, N-{6-[(6-azaspiro[2.5]oct-1-ylmethyl)carbamoyl]pyridazin-3-yl}-1,3-dihydro-2H-isoindole-2-carboxamide]
1970	O=C(NCc1nnc2n1CCNC2)c1ccc(NC(=O)N2Cc3ccccc3C2)nn1 [Example 42, N-{6-[(5,6,7,8-tetrahydro[1,2,4]triazolo[4,3-a]pyrazin-3-ylmethyl)carbamoyl]pyridazin-3-yl}-1,3-dihydro-2H-isoindole-2-carboxamide]
2880	O=C(NCC1(F)CCNCC1)c1ccc(NC(=O)N2Cc3ccccc3C2)nn1 [Example 43, N-(6-{[(4-fluoropiperidin-4-yl)methyl]carbamoyl}pyridazin-3-yl)-1,3-dihydro-2H-isoindole-2-carboxamide]
2140	O=C(NCC1CC2(CNC2)CO1)c1ccc(NC(=O)N2Cc3ccccc3C2)nn1 (stereo not shown) [Example 45, N-{6-[(6-oxa-2-azaspiro[3.4]oct-7-ylmethyl)carbamoyl]pyridazin-3-yl}-1,3-dihydro-2H-isoindole-2-carboxamide]
68.9	O=C(NCC1CC2(CCNCC2)C1)c1ccc(NC(=O)N2Cc3ccccc3C2)nn1 [Example 48, N-{6-[(7-azaspiro[3.5]non-2-ylmethyl)carbamoyl]pyridazin-3-yl}-1,3-dihydro-2H-isoindole-2-carboxamide]
